Reference: patent US11891362B1, “N2,N4-disubstituted pyrimidine-2,4-diamine compounds as antibacterial agents” (KING FAISAL UNIVERSITY, priority 2023, dated 2024)
In brackets after ≈: the same amount, converted by molar mass. Like-named read-outs stand apart in the source and are kept apart here.

Assays:
[1] = test system: Bacillus subtilis MTCC 441; assay: In vitro antibacterial activity, dilution susceptibility test (CLSI M07-A10); format: cell-based; conditions: MTCC441
Text: (§1) Enterococcus faecium resistant to VRE, and Gram-negative organisms including Klebsiella pneumonia, Escherichia coli, Pseudomonas aeruginosa.

[2] = test system: Enterococcus faecium ATCC 35667; assay: as above; format: cell-based; conditions: ATCC35667
Text: as §1

[3] = test system: Enterococcus faecium ATCC 51559 (VRE resistant); assay: as above; format: cell-based
Text: as §1

[4] = test system: Escherichia coli MTCC 443; assay: as above; format: cell-based; conditions: MTCC443
Text: as §1

[5] = test system: Klebsiella pneumonia MTCC 618; assay: as above; format: cell-based; conditions: Klebsiella pneumoniae, MTCC618
Text: as §1

[6] = test system: Pseudomonas aeruginosa MTCC 741; assay: as above; format: cell-based; conditions: MTCC741
Text: as §1

[7] = test system: Staphylococcus aureus ATCC 29213; assay: as above; format: cell-based; conditions: ATCC29213
Text: as §1

[8] = test system: Staphylococcus aureus ATCC BAA-1556 (MERSA resistant); assay: as above; format: cell-based; conditions: ATCCBAA1556
Text: as §1

[9] = test system: Staphylococcus epidermidis; assay: as above; format: cell-based
Text: as §1

[10] = test system: Mycobacterium tuberculosis H37Rv strain; assay: Anti-tubercular properties, alamar blue microplate assay; format: cell-based; conditions: 168 h, seven days incubation, read-out: anti-mycobacterial activity (MIC)
DNA gyrase from E. coli = target: T1, DNA gyrase from E. coli (Escherichia coli, UniProt P0AES4+P0AES6); assay: Inhibitory activities on E. coli DNA gyrase (Inspiralis assay); format: biochemical
T1 construct: purchased Inspiralis
T1 sequence (P0AES4 whole entry, one chain of several): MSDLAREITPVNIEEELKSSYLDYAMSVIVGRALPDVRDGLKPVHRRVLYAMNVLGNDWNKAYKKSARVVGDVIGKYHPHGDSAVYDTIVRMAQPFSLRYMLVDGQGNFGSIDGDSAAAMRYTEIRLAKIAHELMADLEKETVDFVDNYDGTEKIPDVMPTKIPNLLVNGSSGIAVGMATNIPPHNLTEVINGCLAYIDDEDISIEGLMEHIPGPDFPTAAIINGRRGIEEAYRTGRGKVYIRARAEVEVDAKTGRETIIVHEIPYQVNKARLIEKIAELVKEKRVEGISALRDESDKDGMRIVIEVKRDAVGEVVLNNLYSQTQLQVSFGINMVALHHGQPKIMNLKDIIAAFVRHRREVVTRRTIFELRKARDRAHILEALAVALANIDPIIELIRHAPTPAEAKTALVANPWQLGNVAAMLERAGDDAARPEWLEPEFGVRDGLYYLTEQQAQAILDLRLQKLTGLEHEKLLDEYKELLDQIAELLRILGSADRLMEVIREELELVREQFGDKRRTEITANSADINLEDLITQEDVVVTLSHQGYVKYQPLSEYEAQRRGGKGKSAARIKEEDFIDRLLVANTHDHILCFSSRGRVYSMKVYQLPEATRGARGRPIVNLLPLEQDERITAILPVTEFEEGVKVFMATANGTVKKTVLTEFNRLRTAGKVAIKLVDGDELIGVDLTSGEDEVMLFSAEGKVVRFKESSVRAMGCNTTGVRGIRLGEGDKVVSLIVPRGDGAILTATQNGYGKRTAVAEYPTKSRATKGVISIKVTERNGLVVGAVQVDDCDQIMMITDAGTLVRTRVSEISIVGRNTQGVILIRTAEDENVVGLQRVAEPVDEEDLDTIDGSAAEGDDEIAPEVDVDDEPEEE
Description: First, the plates were rehydrated with buffer (20 mM Tris-HCl with pH 7.6, 0.01% w/v BSA, 0.05% v/v Tween 20, 137 mM NaCl) and the biotinylated oligonucleotide was then immobilized. After washing off the unbound oligonucleotide, the enzyme test was performed. The reaction volume of 30 μL in buffer (35 mM Tris×HCl with pH 7.5, 4 mM MgCl2, 24 mM KCl, 2 mM DTT, 1.8 mM spermidine, 1 mM ATP, 6.5% w/v glycerol, 0.1 mg/mL albumin) contained 1.5 U of DNA gyrase from E. coli, 0.75 μg of relaxed pNO1 plasmid, and 3 μL solution of the inhibitor in 10% DMSO and 0.008% Tween 20. Reaction solutions were incubated at 37° C. for 30 min. After that, the TF buffer (50 mM NaOAc with pH 5.0, 50 mM NaCl and 50 mM MgCl2) was added to terminate the enzymatic reaction. After additional incubation for 30 min at rt, during which biotinoligonucleotide-plasmid triplex was formed, the unbound plasmid was washed off using TF buffer and SybrGOLD in T10 buffer (10 mM Tris HCl with pH 8.0 and 1 mM EDTA) was added. The fluorescence was measured with a microplate reader (BioTek Synergy H4, excitation: 485 nm, emission: 535 nm). Initial screening was done at 100 or 10 μM concentration of inhibitors. […] GraphPad Prism software was used to calculate the IC50 values. The result is given as the average value of three independent measurements.

Row | SMILES | MIC [1] [µg/mL] | MIC [2] [µg/mL] | MIC [3] [µg/mL] | MIC [4] [µg/mL] | MIC ([5]; Klebsiella pneumonia MTCC 618, read-out: MIC) [µg/mL] | MIC ([6]; Pseudomonas aeruginosa MTCC 741, read-out: MIC) [µg/mL] | MIC [7] [µg/mL] | MIC [8] [µg/mL] | MIC [9] [µg/mL] | MIC [10] [µg/mL] | IC50 (DNA gyrase from E. coli) [nM] | MIC [5] [µg/mL] | MIC ([6]; Pseudomonas aeruginosa) [µg/mL]
1 | CC(=O)Nc1cccc(Nc2nccc(Nc3ccc(C(=O)O)cc3CN(C)C3CCCCC3)n2)c1 [Compound 7, 4-((2-((3-acetamidophenyl)amino)pyrimidin-4-yl)amino)-3-((cyclohexyl(methyl)amino)methyl)benzoic acid] | 4 (≈ 8.19 µM) | 4 (≈ 8.19 µM) | 16 (≈ 32.7 µM) | 8 (≈ 16.4 µM) | 4 (≈ 8.19 µM) | 4 (≈ 8.19 µM) | 8 (≈ 16.4 µM) | 8 (≈ 16.4 µM) | 8 (≈ 16.4 µM) | 16 (≈ 32.7 µM) | 250 |  | 
2 | CN[C@H](CC(C)C)C(=O)N[C@H]1C(=O)N[C@@H](CC(N)=O)C(=O)N[C@H]2C(=O)N[C@H]3C(=O)N[C@H](C(=O)N[C@H](C(=O)O)c4cc(O)cc(O)c4-c4cc3ccc4O)[C@H](O)c3ccc(c(Cl)c3)Oc3cc2cc(c3O[C@@H]2O[C@H](CO)[C@@H](O)[C@H](O)[C@H]2O[C@H]2C[C@](C)(N)[C@H](O)[C@H](C)O2)Oc2ccc(cc2Cl)[C@H]1O [Vancomycin, reference compound] |  |  |  |  |  |  |  |  |  |  |  | > 128 | > 128
